Measurements from PubChem BioAssay (NCI).
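Test compounds were applied to cells in 96-well plates for 48 hours at 5 doses. TGI is the concentration that stops growth completely.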

Experiments:
Test in all cases: inhibition of tumour cell growth, NCI panel, 48 h
SW-620 colon = test system: SW-620 colon
HOP-92 NSCLC = test system: HOP-92 NSCLC
MDA-MB-231 breast = test system: MDA-MB-231 breast
MCF7 breast = test system: MCF7 breast
NCI-H522 lung = test system: NCI-H522 lung
SN12C renal = test system: SN12C renal
OVCAR-3 ovarian = test system: OVCAR-3 ovarian
CAKI-1 renal = test system: CAKI-1 renal
MOLT-4 leukemia = test system: MOLT-4 leukemia
HCT-116 colon = test system: HCT-116 colon
DU-145 prostate = test system: DU-145 prostate
U251 CNS = test system: U251 CNS
LOX IMVI melanoma = test system: LOX IMVI melanoma
EKVX NSCLC = test system: EKVX NSCLC
MDA-MB-435 = test system: MDA-MB-435
SNB-75 CNS = test system: SNB-75 CNS
PC-3 prostate = test system: PC-3 prostate
BT-549 breast = test system: BT-549 breast
RPMI-8226 leukemia = test system: RPMI-8226 leukemia

Compound	TGI (SW-620 colon)	TGI (HOP-92 NSCLC)	TGI (MDA-MB-231 breast)	TGI (MCF7 breast)	TGI (NCI-H522 lung)	TGI (SN12C renal)	TGI (OVCAR-3 ovarian)	TGI (CAKI-1 renal)	TGI (MOLT-4 leukemia)	TGI (HCT-116 colon)	TGI (DU-145 prostate)	TGI (U251 CNS)	TGI (LOX IMVI melanoma)	TGI (EKVX NSCLC)	TGI (MDA-MB-435)	TGI (SNB-75 CNS)	TGI (PC-3 prostate)	TGI (BT-549 breast)	TGI (RPMI-8226 leukemia)
CC(=O)SCCC(NC(=S)Nc1ccccc1)P(=O)(Oc1ccccc1)Oc1ccccc1 (stereo not given)	> 100 µM	> 100 µM	> 100 µM	> 100 µM	> 100 µM	> 100 µM	> 100 µM	> 100 µM	> 100 µM	> 100 µM	> 100 µM	> 100 µM	> 100 µM	> 100 µM	> 100 µM	> 100 µM			
S=C(N/N=C/c1ccccn1)N1CCCCC1	> 100 µM	> 100 µM		50 µM	25.7 µM	1.96 µM	26.4 µM	> 100 µM		10.9 µM	> 100 µM	> 43.1 µM	20.8 µM	17.4 µM	> 100 µM	0.181 µM	> 100 µM	32.5 µM	1.68 µM
O=C(NN1C(=O)C(Cl)C1c1ccc(Cl)cc1)c1c(Cl)c(Cl)c(Cl)c(Cl)c1-c1nc2ccccc2[nH]1 (stereo not given)	> 100 µM	51.4 µM		34.4 µM	39.7 µM	83.2 µM	> 100 µM	23.2 µM	> 100 µM	44 µM	42.6 µM		32.5 µM	88.7 µM	80.5 µM	57 µM	> 100 µM	77.8 µM	
OCC12C=CC(C1)c1ccccc12 (stereo not given)	> 100 µM	> 100 µM				> 100 µM	> 100 µM	> 100 µM	> 100 µM	> 100 µM		> 100 µM	> 100 µM						> 100 µM
Cc1cccc(Cl)c1NCC(O)CN1CCN(C)CC1 (stereo not given)	> 100 µM	> 100 µM	> 100 µM		> 100 µM	> 100 µM	> 100 µM	> 100 µM	> 100 µM	> 100 µM	> 100 µM	> 100 µM	> 100 µM	> 100 µM	> 100 µM	> 100 µM	> 100 µM	> 100 µM	
COc1ccc2c(c1)CN1C(=N2)CSC1c1cccc(Br)c1 (stereo not given)	> 100 µM	> 100 µM	> 100 µM	> 100 µM	> 100 µM	62.6 µM		> 100 µM	63.2 µM	> 100 µM		> 100 µM	> 100 µM	> 100 µM	> 100 µM	64.5 µM	> 100 µM	> 100 µM	35.2 µM
COC(=O)[C@@H]1C=C[C@H](OC2OC(COC(C)=O)C(OC(C)=O)C(OC(C)=O)C2OC(C)=O)n2c(=O)n(-c3ccccc3)c(=O)n21 (stereo not given in full)	3.41 µM	3.59 µM	8.42 µM		1.07 µM	7.95 µM	3.24 µM	2.7 µM	5.19 µM	3.82 µM	15.7 µM	8.33 µM	3.09 µM	11.2 µM	11.9 µM	13 µM	7.67 µM	6.26 µM	6.05 µM
Clc1ccc(CCN(CCc2ccc(Cl)c(Cl)c2)CCN2CCCC2)cc1Cl			2.91 µM	2.88 µM	3.2 µM		3.2 µM	3.02 µM			4.3 µM	2.95 µM	2.95 µM	4.4 µM	2.75 µM	4.73 µM	2.91 µM	3.65 µM	5.38 µM
CCC(CC)NC1=C(NC(C)=O)C(=O)c2ccccc2C1=O	> 50 µM	> 50 µM			> 50 µM	> 50 µM	> 50 µM		> 50 µM	> 50 µM		> 50 µM	> 50 µM	> 50 µM		> 50 µM			
Cc1ccc(C(=O)O)c(/C=C2\Cc3ccc(C)cc3C2=O)c1	> 100 µM	> 100 µM		> 100 µM	> 100 µM	> 100 µM	> 100 µM	> 100 µM	> 100 µM	> 100 µM	> 100 µM	> 100 µM	> 100 µM	> 100 µM	> 100 µM	> 100 µM	> 100 µM	> 100 µM	53.3 µM
CCOC1C(Br)Cn2c(=O)c3cc4ccccc4cc3c(=O)n2C1C (stereo not given)	> 100 µM	> 100 µM				> 100 µM	> 100 µM	> 100 µM	94 µM	> 100 µM		> 100 µM	> 100 µM	> 100 µM		> 100 µM			> 100 µM
CC12C=CC(C)(C3C(=O)C4C(C(=O)C31)C1(C)C=CC4(C)S1=O)S2=O (stereo not given)			> 100 µM		> 100 µM		> 100 µM	> 100 µM			> 100 µM		> 100 µM	> 100 µM		> 100 µM	> 100 µM	> 100 µM	
COc1ccc2nc3cc(Cl)ccc3c(Sc3ccc([N+](=O)[O-])cc3C)c2c1	> 100 µM	> 100 µM			> 100 µM	> 100 µM	> 100 µM	> 100 µM	> 100 µM	> 100 µM		> 100 µM	> 100 µM	> 100 µM		> 100 µM			
O=[N+]([O-])c1ccc(CSc2nncc3[nH]cnc23)cc1	> 100 µM	67.1 µM	> 100 µM	> 100 µM	> 100 µM	> 100 µM	> 100 µM	> 100 µM	> 100 µM	> 100 µM		> 100 µM	> 100 µM	> 100 µM	> 100 µM	> 100 µM	> 100 µM	> 100 µM	> 100 µM
CCN1C[C@]2(C)CC[C@H](O)C34C1C(C[C@@H]32)[C@@]1(O)CC[C@H]2C[C@@H]4[C@@H]1[C@H]2O	> 100 µM	> 100 µM			> 100 µM	> 100 µM	> 100 µM	> 100 µM	> 100 µM	> 100 µM		> 100 µM	> 100 µM			> 100 µM			> 100 µM
COc1cc(C=O)c(-c2c(C=O)ccc3c2OCO3)c(OC)c1OC	> 100 µM				> 100 µM	> 100 µM	> 100 µM	> 100 µM	> 100 µM	> 100 µM		> 100 µM	> 100 µM	> 100 µM		> 100 µM			> 100 µM
